Laboratory results published in patent US20240101531A1, “PYRIDINAMINE DERIVATIVES AND THEIR USE AS POTASSIUM CHANNEL MODULATORS” (Xenon Pharmaceuticals Inc., priority 2022, published 2024).
Structures can show the parent of a compound that is named as a salt.

Biological target: human KV7.2/KV7.3 (Homo sapiens (Human), UniProt O43525+O43526)
Test: Potassium flux assay (IPG-2 AM dye)
Type: cell-based
Conditions: TREX HEK 293 or HEK 293 cells expressing human KV7.2/KV7.3; arithmetic mean values
In short: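 HEK 293 or TREX HEK 293 cells stably expressing human KV7.2/KV7.3 (tetracycline-induced where needed), loaded with IPG-2 AM, then compound for 20 min at room temperature. Flux triggered by K challenge buffer (10 mM KCl, pH 7.4), read at 530/558 nm; EC50 from 16-point 2-fold series from 30 μM, normalised to DMSO and reference modulator.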

| EC50 [µM] | SMILES |
| --- | --- |
| 1 to 10 | CC1(COc2cnc3c(Nc4ccc(Cl)nc4)nccc3c2)COC1 [Example 259, N-(6-chloropyridin-3-yl)-3-((3-methyloxetan-3-yl)methoxy)-1,7-naphthyridin-8-amine] |
| < 1 | Clc1ccc(Nc2nccc3cc(OCCCc4cn[nH]c4)ccc23)cn1 [Example 260, 6-(3-(1H-pyrazol-4-yl)propoxy)-N-(6-chloropyridin-3-yl)isoquinolin-1-amine] |
| 1 to 10 | O=S1(=O)CC[C@@H](Oc2ccc3c(Nc4ccc(Cl)nc4)nccc3c2)C1 [Example 261, (R)-3-((1-((6-chloropyridin-3-yl)amino)isoquinolin-6-yl)oxy)tetrahydrothiophene 1,1-dioxide] |
| 1 to 10 | O=S1(=O)CC[C@H](Oc2ccc3c(Nc4ccc(Cl)nc4)nccc3c2)C1 [Example 262, (S)-3-((1-((6-chloropyridin-3-yl)amino)isoquinolin-6-yl)oxy)tetrahydrothiophene 1,1-dioxide] |
| < 1 | Clc1ccc(Nc2nccc3cc(OC4CCOC4)ccc23)cn1 (stereo not shown) [Example 263, N-(6-chloropyridin-3-yl)-6-((tetrahydrofuran-3-yl)oxy)isoquinolin-1-amine] |
| 1 to 10 | C[C@]1(O)CC[C@H](Oc2ccc3c(Nc4ccc(Cl)nc4)nccc3c2)CC1 [Example 264, trans-4-((1-((6-chloropyridin-3-yl)amino)isoquinolin-6-yl)oxy)-1-methylcyclohexan-1-ol] |
| < 1 | C[C@]1(O)CC[C@@H](Oc2ccc3c(Nc4ccc(Cl)nc4)nccc3c2)CC1 [Example 265, cis-4-((1-((6-chloropyridin-3-yl)amino)isoquinolin-6-yl)oxy)-1-methylcyclohexan-1-ol] |
| 1 to 10 | Clc1ccc(Nc2nccc3cc(Oc4cccnc4)ccc23)cn1 [Example 266, N-(6-chloropyridin-3-yl)-6-(pyridin-3-yloxy)isoquinolin-1-amine] |
| 1 to 10 | Clc1ccc(Nc2nccc3cc(Oc4cn[nH]c4)ccc23)cn1 [Example 267, 6-((1H-pyrazol-4-yl)oxy)-N-(6-chloropyridin-3-yl)isoquinolin-1-amine] |
| < 1 | CS(=O)(=Nc1ccc2c(Nc3ccc(Cl)nc3)nccc2c1)C1CC1 (stereo not shown) [Example 268, ((1-((6-chloropyridin-3-yl)amino)isoquinolin-6-yl)imino)(cyclopropyl)(methyl)-λ^6-sulfanone] |
| 1 to 10 | CS(=O)(CC1CC1)=Nc1ccc2c(Nc3ccc(Cl)nc3)nccc2c1 (stereo not shown) [Example 269, ((1-((6-chloropyridin-3-yl)amino)isoquinolin-6-yl)imino)(cyclopropylmethyl)(methyl)-λ^6-sulfanone] |
| 1 to 10 | CS(=O)(=Nc1ccc2c(Nc3ccc(Cl)nc3)nccc2c1)C1CCOCC1 (stereo not shown) [Example 270, ((1-((6-chloropyridin-3-yl)amino)isoquinolin-6-yl)imino)(methyl)(tetrahydro-2H-pyran-4-yl)-λ^6-sulfanone] |
| 1 to 10 | COCCS(=O)(=Nc1ccc2c(Nc3ccc(Cl)nc3)nccc2c1)C1CC1 (stereo not shown) [Example 271, ((1-((6-chloropyridin-3-yl)amino)isoquinolin-6-yl)imino)(cyclopropyl)(2-methoxyethyl)-λ^6-sulfanone] |
| 1 to 10 | CS(=O)(CC1COC1)=Nc1ccc2c(Nc3ccc(Cl)nc3)nccc2c1 (stereo not shown) [Example 272, ((1-((6-chloropyridin-3-yl)amino)isoquinolin-6-yl)imino)(methyl)(oxetan-3-ylmethyl)-λ^6-sulfanone] |
| 1 to 10 | CS(=O)(=Nc1ccc2c(Nc3ccc(Cl)nc3)nccc2c1)C1COC1 (stereo not shown) [Example 275, ((1-((6-chloropyridin-3-yl)amino)isoquinolin-6-yl)imino)(methyl)(oxetan-3-yl)-λ^6-sulfanone] |
| 1 to 10 | Cc1ncc(Nc2nccc3cc(N=S(C)(=O)C4CC4)ccc23)cn1 (stereo not shown) [Example 278, cyclopropyl(methyl)((1-((2-methylpyrimidin-5-yl)amino)isoquinolin-6-yl)imino)-λ^6-sulfanone] |
| < 1 | FC(F)n1cc(COc2ccc3c(Nc4ccc(Cl)nc4)nccc3c2)cn1 [Example 279, N-(6-chloropyridin-3-yl)-6-((1-(difluoromethyl)-1H-pyrazol-4-yl)methoxy)isoquinolin-1-amine] |
| 1 to 10 | Clc1ccc(Nc2nccc3cc(OC[C@H]4CCCN4Cc4ccccc4)ccc23)cn1 [Example 280, (R)-6-((1-benzylpyrrolidin-2-yl)methoxy)-N-(6-chloropyridin-3-yl)isoquinolin-1-amine] |
| 10 to 30 | Clc1ccc(Nc2nccc3cc(OCc4cnn5c4CCC5)ccc23)cn1 [Example 281, N-(6-chloropyridin-3-yl)-6-((5,6-dihydro-4H-pyrrolo[1,2-b]pyrazol-3-yl)methoxy)isoquinolin-1-amine] |
| 1 to 10 | Clc1ccc(Nc2nccc3cc(OC4CCN(Cc5ccccc5)C4)ccc23)cn1 (stereo not shown) [Example 282, 6-((1-benzylpyrrolidin-3-yl)oxy)-N-(6-chloropyridin-3-yl)isoquinolin-1-amine] |

| EC50 [µM] | SMILES |
| --- | --- |
| 1 to 10 | Clc1ccc(Nc2nccc3cc(OC[C@@H]4CCN(Cc5ccccc5)C4)ccc23)cn1 [Example 283, (R)-6-((1-benzylpyrrolidin-3-yl)methoxy)-N-(6-chloropyridin-3-yl)isoquinolin-1-amine] |
| 1 to 10 | Clc1ccc(Nc2nccc3cc(OC[C@H]4CCN(Cc5ccccc5)C4)ccc23)cn1 [Example 284, (S)-6-((1-benzylpyrrolidin-3-yl)methoxy)-N-(6-chloropyridin-3-yl)isoquinolin-1-amine] |
| 1 to 10 | Clc1ccc(Nc2nccc3cc(OCc4cnn5c4CCCC5)ccc23)cn1 [Example 285] |
| 1 to 10 | CS(=O)(=O)C1(COc2ccc3c(Nc4ccc(Cl)nc4)nccc3c2)CC1 [Example 286, N-(6-chloropyridin-3-yl)-6-((1-(methylsulfonyl)cyclopropyl)methoxy)isoquinolin-1-amine] |
| 1 to 10 | CS(=O)(=O)C1(COc2ccc3c(Nc4ccc(Cl)nc4)nccc3c2)CCC1 [Example 287, N-(6-chloropyridin-3-yl)-6-((1-(methylsulfonyl)cyclobutyl)methoxy)isoquinolin-1-amine] |
| < 1 | COC1(COc2ccc3c(Nc4ccc(Cl)nc4)nccc3c2)CCC1 [Example 288, N-(6-chloropyridin-3-yl)-6-((1-methoxycyclobutyl)methoxy)isoquinolin-1-amine] |
| 1 to 10 | Clc1ccc(Nc2nccc3cc(OCc4cnn(C5CC5)c4)ccc23)cn1 [Example 289, N-(6-chloropyridin-3-yl)-6-((1-cyclopropyl-1H-pyrazol-4-yl)methoxy)isoquinolin-1-amine] |
| < 1 | Clc1ccc(Nc2nccc3cc(OC4CCC45COC5)ccc23)cn1 (stereo not shown) [Example 290, 6-((2-oxaspiro[3.3]heptan-5-yl)oxy)-N-(6-chloropyridin-3-yl)isoquinolin-1-amine] |
| 1 to 10 | Cn1ncc(COc2ccc3c(Nc4ccc(Cl)nc4)nccc3c2)c1Cl [Example 291, 6-((5-chloro-1-methyl-1H-pyrazol-4-yl)methoxy)-N-(6-chloropyridin-3-yl)isoquinolin-1-amine] |
| < 1 | Cn1cc(COc2ccc3c(Nc4ccc(Cl)nc4)nccc3c2)c(Cl)n1 [Example 292, 6-((3-chloro-1-methyl-1H-pyrazol-4-yl)methoxy)-N-(6-chloropyridin-3-yl)isoquinolin-1-amine] |
| < 1 | CC1(COc2ccc3c(Nc4ccc(Cl)nc4)nccc3c2)CS(=O)(=O)C1 [Example 293, 3-(((1-((6-chloropyridin-3-yl)amino)isoquinolin-6-yl)oxy)methyl)-3-methylthietane 1,1-dioxide] |
| < 1 | NS(=O)(=O)C1(COc2ccc3c(Nc4ccc(Cl)nc4)nccc3c2)CCC1 [Example 294, 1-(((1-((6-chloropyridin-3-yl)amino)isoquinolin-6-yl)oxy)methyl)cyclobutane-1-sulfonamide] |
| 1 to 10 | Clc1ccc(Nc2nccc3cc(OCc4cnn(Cc5ccccc5)c4)ccc23)cn1 [Example 295, 6-((1-benzyl-1H-pyrazol-4-yl)methoxy)-N-(6-chloropyridin-3-yl)isoquinolin-1-amine] |
| 1 to 10 | CC(Cc1cnn(C)c1)Oc1ccc2c(Nc3ccc(Cl)nc3)nccc2c1 (stereo not shown) [Example 296, N-(6-chloropyridin-3-yl)-6-((1-(1-methyl-1H-pyrazol-4-yl)propan-2-yl)oxy)isoquinolin-1-amine] |
| < 1 | Clc1ccc(Nc2nccc3cc(O[C@@H]4CCOC4)ccc23)cn1 [Example 297, (R)-N-(6-chloropyridin-3-yl)-6-((tetrahydrofuran-3-yl)oxy)isoquinolin-1-amine trifluoroacetate] |
| 1 to 10 | Clc1ccc(Nc2nccc3cc(O[C@H]4CCOC4)ccc23)cn1 [Example 298, (S)-N-(6-chloropyridin-3-yl)-6-((tetrahydrofuran-3-yl)oxy)isoquinolin-1-amine trifluoroacetate] |
| < 1 | CC1(C)OCC(COc2ccc3c(Nc4ccc(Cl)nc4)nccc3c2)O1 (stereo not shown) [Example 299, N-(6-chloropyridin-3-yl)-6-((2,2-dimethyl-1,3-dioxolan-4-yl)methoxy)isoquinolin-1-amine] |
| < 1 | O=S1(=O)CC(COc2ccc3c(Nc4ccc(Cl)nc4)nccc3c2)C1 [Example 300, 3-(((1-((6-chloropyridin-3-yl)amino)isoquinolin-6-yl)oxy)methyl)thietane 1,1-dioxide] |
| < 1 | Clc1ccc(Nc2nccc3cc(OCc4cnsc4)ccc23)cn1 [Example 301, N-(6-chloropyridin-3-yl)-6-(isothiazol-4-ylmethoxy)isoquinolin-1-amine] |
| 1 to 10 | C[C@]1(COc2ccc3c(Nc4ccc(Cl)nc4)nccc3c2)CCCO1 [Example 302, (R)—N-(6-chloropyridin-3-yl)-6-((2-methyltetrahydrofuran-2-yl)methoxy)isoquinolin-1-amine] |
